Results: patent US9169477B2, “Compositions and methods for immunization against bacteria expressing a carbapenemase” (priority 2012, dated 2015)

How the values were obtained:
[1] = test system: KPC-expressing Klebsiella pneumoniae strain KPC-KP1; test: Imipenem MIC of the test strain; assay type: cell-based
Protocol: (§1) To determine the in vitro effects of the antibody generated in response to rNDM1 and rKPC vaccination, bacteria were incubated overnight at 37° C. in 10% serum plus Mueller-Hinton broth, per CLSI standards. […] Thus, the immune serum was directly cidal for NDM-1 expressing K. pneumoniae.

[2] = test system: NDM-1-expressing K. pneumoniae (ATCC BAA-2146); test: Imipenem MIC of the test strain; assay type: cell-based; conditions: Klebsiella pneumoniae, ATCCBAA2146
Protocol: as §1

NDM-1 = target: T1, NDM-1 (Klebsiella pneumoniae, UniProt C7C422); test: IgG antibody titers in serum of mice vaccinated with rNDM-1; assay type: in vivo; conditions: subcutaneous with Al(OH)3 adjuvant, booster at three weeks, serum two weeks after booster, vs control mice
T1 construct: made in house
Description: A vaccination program targeting KPC- and NDM-1 was developed. The KPC gene was cloned from a pan-resistant (to all antibiotics, including colistin) clinical lung isolate of K. pneumoniae acquired at a local hospital (KPC-KP1) and the NDM-1 gene was cloned from a clinical K. pneumoniae isolate (ATCC BAA-2146). Recombinant KPC (rKPC) and recombinant NDM-1 (rNDM-1) proteins were expressed, purified, and used for immunization of mice. The immunization of the mice consisted of subcutaneously injecting either rKPC or rNDM-1 with Al(OH)3 adjuvant. A booster immunization for each mouse was administered at three weeks post initial immunization. Two weeks after the booster, serum from immune and control mice were harvested. […] Thus, high titers of immune polyclonal antibodies have been generated against KPC and NDM-1.

Row | Molecule | MIC [1] [µg/mL] | MIC [2] [µg/mL] | anti-NDM-1 IgG titers (NDM-1; listed as NDM-1) | anti-NDM-1 IgG titers (NDM-1; listed as rNDM1)
1 | C[C@@H](O)[C@H]1C(=O)N2C(C(=O)O)=C(SCCN=CN)C[C@H]12 [imipenem] | > 32 | > 32 |  | 
2 | rNDM-1: Recombinant NDM-1 protein cloned from K. pneumoniae ATCC BAA-2146, injected with Al(OH)3 adjuvant for immunization (protein, UniProt C7C422 29-270, looked up) Metallo-beta-lactamase type 2: GEIRPTIGQQMETGDQRFGDLVFRQLAPNVWQHTSYLDMPGFGAVASNGLIVRDGGRVLVVDTAWTDDQTAQILNWIKQEINLPVALAVVTHAHQDKMGGMDALHAAGIATYANALSNQLAPQEGMVAAQHSLTFAANGWVEPATAPNFGPLKVFYPGPGHTSDNITVGIDGTDIAFGGCLIKDSKAKSLGNLGDADTEHYAASARAFGAAFPKASMIVMSHSAPDSRAAITHTARMADKLR |  |  | marked increase | high titers
